In BindingDB's records for patent US20250136570 (Tango Therapeutics, 2025) one finds IC50 data, which are given here for six molecules.

A value given as a limit tells only on which side of the number the result lay.

The term IC50 denotes the concentration needed to halve the response being measured. Low values mean greater potency in that assay, high ones weaker potency in that assay.

Chain of Histone deacetylase 1 (Q13547 whole entry): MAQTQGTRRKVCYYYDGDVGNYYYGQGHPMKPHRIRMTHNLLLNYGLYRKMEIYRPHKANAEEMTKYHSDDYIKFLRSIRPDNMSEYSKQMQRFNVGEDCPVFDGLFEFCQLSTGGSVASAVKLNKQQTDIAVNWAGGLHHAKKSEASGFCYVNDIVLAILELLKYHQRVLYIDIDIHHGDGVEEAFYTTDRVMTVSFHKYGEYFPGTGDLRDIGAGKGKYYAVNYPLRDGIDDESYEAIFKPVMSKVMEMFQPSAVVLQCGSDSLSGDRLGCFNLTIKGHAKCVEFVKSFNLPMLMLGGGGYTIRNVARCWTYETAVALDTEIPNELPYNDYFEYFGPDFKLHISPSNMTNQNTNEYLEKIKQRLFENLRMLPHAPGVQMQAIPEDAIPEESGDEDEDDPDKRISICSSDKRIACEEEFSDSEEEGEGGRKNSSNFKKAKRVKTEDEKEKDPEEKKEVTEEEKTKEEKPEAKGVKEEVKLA

This experiment deals with Histone deacetylase 1 (Homo sapiens, UniProt Q13547). The experiment is described as follows: HDAC1 & HDAC3 Inhibition Assay. The protocol:
IC50 determination for HDAC1 and HDAC3-Prior to adding reagents, 50 nL/well of compound were added to Proxiplates using an Echo dispenser instrument (Beckman Coulter, CA, US). After addition of compound, 2.5 μL/well of 2× enzyme solution was added and the enzyme was pre-incubated with compound for 3 hours at room temp. (˜22° C.). After the pre-incubation period, the enzyme reaction was initiated by adding 2.5 μL/well of 2× Fluor de Lys substrate solution. The assay reaction was stopped after one hour by adding 5 μl/well of a 0.66× Developer solution containing TSA (3.2 μM). The final product of the enzyme reaction was read using a Spectramax plate reader instrument (Molecular Devices, CA, US) using a fluorescent readout (Ex 360 nm/Em 460 nm). The final enzyme concentrations in the assay buffer for HDAC1 and 3 were 6 and 1.2 nM, respectively. The final Fluor de Lys substrate concentration in the assay buffer was 16 μM for all HDAC enzymes. IC50 values were determined using the following equation:EfreeEo=100(1-11+(1IC50)n)(1)Where Efree and Eo are the free and total amount of HDAC enzyme in the reaction mixture, n is the hill coefficient, I is the free inhibitor concentration, and IC50 is the measure of the potency equivalent to the inhibitor concentration that leads to a 50% occupancy of the total enzyme. Each data was generated in duplicate.
The molecule `Nc1ccc(-c2ccc(F)cc2)cc1NC(=O)c1cc2cc(S3(=O)=NCCC3)ccc2s1` (stereo unspecified) [US20250136570, Compound 204] had an IC50 of less than 100 nM. In turn, `Nc1ccc(-c2ccc(F)cc2)cc1NC(=O)c1ccc(S2(=O)=NCCCC2)cc1` (stereo unspecified) [US20250136570, Compound 243] displayed an IC50 of less than 100 nM. In the case of `Nc1ccc(-c2ccc(F)s2)cc1NC(=O)c1ccc(S2(=O)=NCCC2)cc1` (stereo unspecified) [US20250136570, Compound 160], the IC50 is less than 100 nM.

Take `N=S(=O)(c1ccc(C(=O)Nc2cc(-c3ccc(F)cc3)ccc2N)cc1)c1ccc(Cl)cn1` (stereo unspecified) [US20250136570, Compound 213]: the IC50 is less than 100 nM. The molecule `Nc1ccc(-c2cccs2)cc1NC(=O)c1ccc(S2(=O)=NCCC2)cc1` (stereo unspecified) [US20250136570, Compound 126] gave a half-maximal inhibitory concentration (IC50) of less than 100 nM. As for `Nc1ccc(-c2ccc(F)cc2)cc1NC(=O)c1ccc(S2(=O)=NCCC2)nc1` (stereo unspecified) [US20250136570, Compound 178], the figure is less than 100 nM.
